Data taken from patent publication US11000033B2, “Ketone or oxime compound, and herbicide” (NISSAN CHEMICAL CORPORATION, priority 2014, dated 2021).

What was measured:
Format in all cases: in vivo
[1] = test system: Scirpus juncoides; test: Test Example 1: herbicidal activity, application before weed generation in submerged conditions (symbol B); conditions: application herbicide amount 320 g/ha
In short: (§1)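 In a flooded pot test with alluvial soil, the emulsion-formulated compound was diluted with water to a predetermined amount and applied to the floodwater immediately on the sowing day. Pots were held in a greenhouse at 25–30 °C for 3 weeks before each weed was rated.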

[2] = test system: Monochoria vaginalis; test: Test Example 1: herbicidal activity, application before weed generation in submerged conditions (symbol C); conditions: application herbicide amount 320 g/ha
In short: as §1

[3] = test system: Echinochloa oryzacola Vasing.; test: Test Example 2: herbicidal activity, application during weed generation in submerged conditions (symbol A); conditions: Table 23; application herbicide amount 320 g/ha; grade 0-5 by criteria of Test Example 1
In short: (§2)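 Visual herbicidal ratings, taken three weeks after dosing, reflect post-emergence water-surface application to seedlings at one to two leaves. Conditions: co-sown weeds in alluvial soil flooded to 4 cm, greenhouse held at 25° C. to 30° C.; compound given as water-diluted emulsion at a fixed herbicide amount.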

[4] = test system: Monochoria vaginalis; test: Test Example 2: herbicidal activity, application during weed generation in submerged conditions (symbol C); conditions: Table 23; application herbicide amount 320 g/ha; grade 0-5 by criteria of Test Example 1
In short: as §2

[5] = test system: directly sowed rice plant; test: Test Example 3: effect on crop by foliage application, Wagner pot (symbol b); conditions: application herbicide amount 320 g/ha
In short: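 Wagner pot (1/10000 are), alluvial soil, submerged 0.1–0.5 cm; sown E. crus-galli var. crus-galli, L. chinensis, C. difformis, rice; greenhouse 25–30 °C.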

[6] = test system: Lolium multiflorum Lam.; test: Test Example 4: herbicidal effect by soil treatment (symbol K)
In short: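 Seeds were sown in sterilized diluvial soil, covered with about 1.5 cm of soil, and the soil surface was sprayed with a water-diluted emulsion of the compound at a predetermined rate. Plants grew in a greenhouse at 25° C. to 30° C.; effects were scored visually 3 weeks after application.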

[7] = test system: soybean; test: Test Example 4: effect on crop by soil treatment (symbol d); conditions: for d: soybean, effect on crop grade: application herbicide amount 320 g/ha; for d: soybean, effect grade on crop: 320 g/ha
In short: (§3)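 Plants are raised in a greenhouse (25° C. to 30° C.) from spot-sown seed, which sits under about 1.5 cm of sterilized diluvial soil in a box shared with weed species.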

[8] = test system: wheat; test: Test Example 4: effect on crop by soil treatment (symbol e); conditions: for e: wheat, effect on crop grade: application herbicide amount 320 g/ha; for e: wheat, effect grade on crop: 320 g/ha
In short: as §3

[9] = test system: beet; test: Test Example 4: effect on crop by soil treatment (symbol f); conditions: for f: beet, effect on crop grade: application herbicide amount 320 g/ha; for f: beet, effect grade on crop: 320 g/ha
In short: as §3

[10] = test system: Avena fatua; test: Test Example 5: herbicidal effect by foliage application, plastic box (symbol I); conditions: 320 g/ha, 3 weeks after application
In short: (§4)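 Post-emergence spray; diluvial soil (sterilized), ~1.5 cm seed cover; greenhouse 25–30° C; 14-day-old plants; water-diluted emulsion at predetermined dose; visual score at 3 wk post-treatment.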

[11] = test system: Amaranthus retroflexus; test: Test Example 5: herbicidal effect by foliage application, plastic box (symbol N); conditions: 320 g/ha, 3 weeks after application
In short: as §4

[12] = test system: Veronica persica; test: Test Example 5: herbicidal effect by foliage application, plastic box (symbol R); conditions: 320 g/ha, 3 weeks after application
In short: as §4

[13] = test system: wheat; test: Test Example 5: effect on crop by foliage application, plastic box (symbol e); conditions: 320 g/ha, 3 weeks after application
In short: (§5)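 Soil: sterilized diluvial. Container: plastic box, 21 × 13 cm, 7 cm deep. Sowing: spot-like, ~1.5 cm cover. Growth: greenhouse, 25° C. to 30° C.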

[14] = test system: rapeseed; test: Test Example 5: effect on crop by foliage application, plastic box (symbol g); conditions: 320 g/ha, 3 weeks after application
In short: as §5

[15] = application herbicide amount 320 g/ha

SMILES	Herbicidal effect grade, B: Scirpus juncoides [1]	Herbicidal effect grade, C: Monochoria vaginalis [2]	Herbicidal effect grade, A: Echinochloa oryzacola Vasing. [3]	Herbicidal effect grade, C: Monochoria vaginalis [4]	effect on crop b (directly sowed rice plant), grade 0-5 [5]	K: Lolium multiflorum Lam., herbicidal effect grade [6, 15]	d: soybean, effect on crop grade [7]	e: wheat, effect on crop grade [8]	f: beet, effect on crop grade [9]	I: Avena fatua, herbicidal effect grade [10]	N: Amaranthus retroflexus, herbicidal effect grade [11]	R: Veronica persica, herbicidal effect grade [12]	e: wheat, effect on crop grade [13]	g: rapeseed, effect on crop grade [14]	K: Lolium multiflorum Lam., herbicidal effect grade ([6]; 320 g/ha)	d: soybean, effect grade on crop [7]	e: wheat, effect grade on crop [8]	f: beet, effect grade on crop [9]	further results
CON=C(C)CC1CC(O)=C(c2c(C)cc(OCC(F)(F)F)cc2C)C1=O (stereo not shown) [6-049]	5 (Herbicidal ratio of 90% or more (almost completely withered))	4 (Herbicidal ratio of 70% or higher and lower than 90%)	5 (Herbicidal ratio of 90% or more (almost completely withered))	3 (Herbicidal ratio of 40% or higher and lower than 70%)	5 (Herbicidal ratio of 90% or more (almost completely withered))	5 (Herbicidal ratio of 90% or more (almost completely withered))	0 (Herbicidal ratio of 5% or lower (almost no effect))	5 (Herbicidal ratio of 90% or more (almost completely withered))	3 (Herbicidal ratio of 40% or higher and lower than 70%)	0 (Herbicidal ratio of 5% or lower (almost no effect))	4 (Herbicidal ratio of 70% or higher and lower than 90%)	5 (Herbicidal ratio of 90% or more (almost completely withered))	5 (Herbicidal ratio of 90% or more (almost completely withered))	5 (Herbicidal ratio of 90% or more (almost completely withered))	–	–	–	–	–
CON=C(C)CC1CC(OS(=O)(=O)c2ccc(C)cc2)=C(c2c(C)cc(C)cc2C)C1=O (stereo not shown) [1-161]	4 (Herbicidal ratio of 70% or higher and lower than 90%)	1 (Herbicidal ratio of 5% or higher and lower than 20%)	5 (Herbicidal ratio of 90% or more (almost completely withered))	3 (Herbicidal ratio of 40% or higher and lower than 70%)	5 (Herbicidal ratio of 90% or more (almost completely withered))	–	–	–	–	4 (Herbicidal ratio of 70% or higher and lower than 90%)	0 (Herbicidal ratio of 5% or lower (almost no effect))	0 (Herbicidal ratio of 5% or lower (almost no effect))	2 (Herbicidal ratio of 20% or higher and lower than 40%)	3 (Herbicidal ratio of 40% or higher and lower than 70%)	3 (Herbicidal ratio of 40% or higher and lower than 70%)	0 (Herbicidal ratio of 5% or lower (almost no effect))	3 (Herbicidal ratio of 40% or higher and lower than 70%)	0 (Herbicidal ratio of 5% or lower (almost no effect))	–
CON=C(C)CC1CC(O)=C(c2c(C)cc(-c3ccc(Cl)nc3)cc2C)C1=O (mixture of isomers) [6-035]	4 (Herbicidal ratio of 70% or higher and lower than 90%)	1 (Herbicidal ratio of 5% or higher and lower than 20%)	5 (Herbicidal ratio of 90% or more (almost completely withered))	0 (Herbicidal ratio of 5% or lower (almost no effect))	5 (Herbicidal ratio of 90% or more (almost completely withered))	5 (Herbicidal ratio of 90% or more (almost completely withered))	0 (Herbicidal ratio of 5% or lower (almost no effect))	0 (Herbicidal ratio of 5% or lower (almost no effect))	0 (Herbicidal ratio of 5% or lower (almost no effect))	5 (Herbicidal ratio of 90% or more (almost completely withered))	5 (Herbicidal ratio of 90% or more (almost completely withered))	4 (Herbicidal ratio of 70% or higher and lower than 90%)	4 (Herbicidal ratio of 70% or higher and lower than 90%)	4 (Herbicidal ratio of 70% or higher and lower than 90%)	–	–	–	–	–
CCOC(=O)C(CC)(C(C)=O)C1CC(O)=C(c2c(C)cc(C)cc2C)C1=O (stereo not shown) [2-012]	0 (Herbicidal ratio of 5% or lower (almost no effect))	0 (Herbicidal ratio of 5% or lower (almost no effect))	0 (Herbicidal ratio of 5% or lower (almost no effect))	0 (Herbicidal ratio of 5% or lower (almost no effect))	0 (Herbicidal ratio of 5% or lower (almost no effect))	0 (Herbicidal ratio of 5% or lower (almost no effect))	0 (Herbicidal ratio of 5% or lower (almost no effect))	0 (Herbicidal ratio of 5% or lower (almost no effect))	0 (Herbicidal ratio of 5% or lower (almost no effect))	0 (Herbicidal ratio of 5% or lower (almost no effect))	0 (Herbicidal ratio of 5% or lower (almost no effect))	0 (Herbicidal ratio of 5% or lower (almost no effect))	0 (Herbicidal ratio of 5% or lower (almost no effect))	0 (Herbicidal ratio of 5% or lower (almost no effect))	–	–	–	–	–
CON=C(C)CC1CC(OC(=O)c2ccc(C(F)(F)F)cc2)=C(c2c(C)cc(C)cc2C)C1=O (stereo not shown) [1-149]	5 (Herbicidal ratio of 90% or more (almost completely withered))	1 (Herbicidal ratio of 5% or higher and lower than 20%)	5 (Herbicidal ratio of 90% or more (almost completely withered))	3 (Herbicidal ratio of 40% or higher and lower than 70%)	5 (Herbicidal ratio of 90% or more (almost completely withered))	–	–	–	–	–	–	–	–	–	5 (Herbicidal ratio of 90% or more (almost completely withered))	0 (Herbicidal ratio of 5% or lower (almost no effect))	5 (Herbicidal ratio of 90% or more (almost completely withered))	0 (Herbicidal ratio of 5% or lower (almost no effect))	I: Avena fatua, herbicidal effect (criteria 0-5) [10]: 5 (Herbicidal ratio of 90% or more (almost completely withered)); N: Amaranthus retroflexus, herbicidal effect (criteria 0-5) [11]: 0 (Herbicidal ratio of 5% or lower (almost no effect)); R: Veronica persica, herbicidal effect (criteria 0-5) [12]: 2 (Herbicidal ratio of 20% or higher and lower than 40%); e: wheat, effect on crop (criteria 0-5) [13]: 5 (Herbicidal ratio of 90% or more (almost completely withered)); g: rapeseed, effect on crop (criteria 0-5) [14]: 4 (Herbicidal ratio of 70% or higher and lower than 90%)
